Measured values taken from patent US10556865B2, “Synergistic herbicidal composition containing certain pyridine or pyrimidine carboxylic acids and certain cereal and rice herbicides” (Dow AgroSciences, LLC, priority 2007, dated 2020).

Key:
Type in all cases: in vivo
Scirpus species (SCPSS) = assay: Herbicidal mixtures for weed control in transplanted paddy rice (in-water application, visual % injury); settings: SCPJU; 35 g/ha alone
Protocol: (§1) Weed seeds or nutlets of the desired test plant species were planted in puddled soil (mud) prepared by mixing a non-sterilized mineral soil (28 percent silt, 18 percent clay, and 54 percent sand, with a pH of about 7.3 to 7.8 and an organic matter content of about 1.0 percent) and water at a ratio of 100 kilograms (kg) of soil to 19 L of water. The prepared mud was dispensed in 250 mL aliquots into 480 mL non-perforated plastic pots with a surface area of 91.6 square centimeters leaving a headspace of 3 centimeters in each pot. Rice seeds were planted in Sun Gro MetroMix® 306 planting mixture, which typically has a pH of 6.0 to 6.8 and an organic matter content of about 30 percent, in plastic plug trays. Seedlings at the second or third leaf stage of growth were transplanted into 650 mL of mud contained in 960 mL non-perforated plastic pots with a surface area of 91.6 cm^2 4 days prior to herbicide application. The paddy was created by filling the 3 centimeter headspace of the pots with water. […] The plants were grown for 4-14 days in a greenhouse with an approximate 14 hr photoperiod which was maintained at about 29° C. during the day and 26° C. during the night. Nutrients were added as Osmocote (17:6:10, N:P:K+minor nutrients) at 2 g per cup. Water was added on a regular basis to maintain the paddy flood, and supplemental lighting was provided with overhead metal halide 1000-Watt lamps as necessary. The plants were employed for testing when they reached the second or third true leaf stage.
(§2) Treatments consisted of esters or salts of compound A, compound C, or compound D and various herbicidal components alone and in combination. For technical grade compounds, a weighed amount, determined by the highest rate to be tested, was placed in an individual 120 mL glass vial and was dissolved in 20 mL of acetone to obtain concentrated stock solutions. […] The concentrated stock solutions obtained were diluted with 20 mL of an aqueous mixture containing 2.5% Agri-dex crop oil concentrate (v/v). For formulated compounds, a measured amount, determined by the highest rate to be tested, was placed in an individual 120 mL glass vial and was dissolved in 20 mL of 2.5% (v/v) Agri-dex crop oil concentrate to obtain concentrated stock solutions. The concentrated stock solutions obtained were diluted with 20 mL of acetone. Applications were made by injecting an appropriate amount of the stock solution into the aqueous layer of the paddy. Control plants were treated in the same manner with the solvent blank. All treated plant material received the same concentration of acetone and crop oil concentrate.
(§3) Forms of compounds A, C, and D were applied on an acid equivalent basis. Other herbicidal components were applied on an active ingredient basis and included acetolactate synthase (ALS)-inhibiting herbicides penoxsulam (triazolopyrimidine chemical class) applied as Grasp SC, […] (sulfonylurea chemical class) applied as Sirius G, and bensulfuron-methyl (sulfonylurea chemical class) applied as Londax; acetyl CoA carboxylase (ACCase) inhibiting herbicides cyhalofop-butyl applied as Clincher G and fenoxaprop-p-ethyl applied as Ricestar HT; auxinic herbicide quinclorac applied as Facet 75 DF; phytoene desaturase inhibiting herbicide norflurazon; and p-hydroxyphenylpyruvate dioxygenase (HPPD) inhibiting herbicide sulcotrione applied as Mikado.
(§4) The treated plants and control plants were placed in a greenhouse as described above and water was added as needed to maintain a paddy flood. After 3 weeks the condition of the test plants as compared with that of the untreated plants was determined visually and scored on a scale of 0 to 100 percent where 0 corresponds to no injury and 100 corresponds to complete kill.

[1] = system: Fimbristylis miliacea (L.) VAHL (FIMMI); assay: as above
Protocol: as §1, §2, §3, §4

[2] = system: Fimbristylis miliacea (L.) VAHL (FIMMI); assay: Postemergence herbicidal mixtures for weed control in direct seeded rice (greenhouse, visual % injury); settings: alone 35 g/ha
[3] = system: Scirpus maritimus L. (SCPMA); assay: as above; settings: alone 35 g/ha
[4] = system: Polygonum pensylvanicum L. (POLPY); assay: as above
[5] = system: bird's-eye speedwell (Veronica persica L; VERPE); assay: Postemergence herbicidal activity of mixtures in cereal crops (greenhouse, visual injury)
How it was run: (§5)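 Weeds grown in greenhouse (~14 h photoperiod, ~18/17 °C day/night) to second–third true leaf stage, sprayed postemergence with compound and second cereal herbicide alone or combined; solvent-blank controls. Injury scored visually after 20-22 days, 0–100% (complete kill); expected mixture activity = A+B−(A×B/100).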

[6] = system: wild pansy (Viola tricolor L; VIOTR); assay: as above
How it was run: as §5

[7] = system: scented mayweed (Matricaria chamomila L; MATCH); assay: as above
How it was run: as §5

[8] = system: wild mustard (Sinapis arvensis L; SINAR); assay: as above
How it was run: (§6)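 Greenhouse-grown plants at 2nd–3rd true leaf stage (14 h photoperiod, ~18/17 °C) sprayed postemergence at 187 L/ha with compound A or B (methyl ester or TEA/K salt) and a second cereal herbicide, alone and in two- or three-way mixtures. Visual injury (0–100%) scored versus solvent-blank controls after 20–22 days; expected mixture activity calculated by Colby's equation.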

[9] = system: ivy-leaved speedwell (Veronica hederifolia L; VERHE); assay: as above; settings: 12.5 g/ha
How it was run: as §6

[10] = system: kochia (Kochia scoparia L; KCHSC); assay: as above
How it was run: as §6

[11] = system: Russian thistle (Salsola iberica L; SASKR); assay: as above
How it was run: as §6

[12] = system: Eleocharis kuroguwai OHWI (ELOKU); assay: Herbicidal mixtures for weed control in transplanted paddy rice (in-water application, visual % injury)
Protocol: (§7) Weed seeds or nutlets of the desired test plant species were planted in puddled soil (mud) prepared by mixing a non-sterilized mineral soil (28 percent silt, 18 percent clay, and 54 percent sand, with a pH of about 7.3 to 7.8 and an organic matter content of about 1.0 percent) and water at a ratio of 100 kilograms (kg) of soil to 19 L of water. The prepared mud was dispensed in 250 mL aliquots into 480 mL non-perforated plastic pots with a surface area of 91.6 square centimeters leaving a headspace of 3 centimeters in each pot. Rice seeds were planted in Sun Gro MetroMix® 306 planting mixture, which typically has a pH of 6.0 to 6.8 and an organic matter content of about 30 percent, in plastic plug trays. Seedlings at the second or third leaf stage of growth were transplanted into 650 mL of mud contained in 960 mL non-perforated plastic pots with a surface area of 91.6 cm^2 4 days prior to herbicide application. The paddy was created by filling the 3 centimeter headspace of the pots with water. When required to ensure good germination and healthy plants, a fungicide treatment and/or other chemical or physical treatment was applied. The plants were grown for 4-14 days in a greenhouse with an approximate 14 hr photoperiod which was maintained at about 29° C. during the day and 26° C. during the night. Nutrients were added as Osmocote (17:6:10, N:P:K+minor nutrients) at 2 g per cup. Water was added on a regular basis to maintain the paddy flood, and supplemental lighting was provided with overhead metal halide 1000-Watt lamps as necessary. The plants were employed for testing when they reached the second or third true leaf stage.
as §2, §3, §4

[13] = system: Leptochloa chinensis (L.) NEES (LEFCH); assay: as above
Protocol: as §7, §2, §3, §4

[14] = system: Scirpus maritimus L. (SCPMA); assay: as above
Protocol: as §7, §2, §3, §4

Cyperus species (CYPSS) = assay: as above
Protocol: as §7, §2, §3, §4

[15] = system: Sphenoclea zeylanica GAERTN. (SPDZE); assay: as above
Protocol: as §7, §2, §3, §4

[16] = system: Echinochloa species (ECHSS); assay: Herbicidal mixtures for weed control in transplanted paddy rice (in-water application, visual % injury after 3 weeks); settings: ECHCG
Protocol: as §7, §2, §3, §4

[17] = system: Leptochloa chinensis (L.) NEES (LEFCH); assay: Postemergence herbicidal mixtures for weed control in direct seeded rice (greenhouse, visual % injury); settings: LEFCH; 70 g/ha alone
[18] = system: Digitaria sanguinalis (L.) SCOP. (DIGSA); assay: as above
[19] = system: blackgrass (Alopecurus myosuroides L; ALOMY); assay: Postemergence herbicidal activity of mixtures in cereal crops (greenhouse, visual injury 0-100 percent after 20-22 days); settings: 15 g/ha, Table 1
How it was run: (§8)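 Plants at second-third true leaf stage sprayed postemergence at 187 L/ha with compound and second cereal herbicide alone and combined; solvent blank controls. Visual injury scored 0-100% versus controls after 20-22 days; expected mixture effects by Colby's equation.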

[20] = system: windgrass (Apera spica-venti L; APESV); assay: Postemergence herbicidal activity of mixtures in cereal crops (greenhouse, visual injury); settings: Apera spica-venti, post-emergence, 15 g/ha, Table 1; read-out: APESV Ob
How it was run: as §8

[21] = system: wild oats (Avena fatua L; AVEFA); assay: as above; settings: 15 g/ha, Table 1
How it was run: as §8

[22] = system: annual ryegrass (Lolium multiflorum L; LOLMG); assay: as above; settings: 15 g/ha, Table 1
How it was run: as §8

[23] = system: chickweed (Stellaria media L; STEME); assay: as above; settings: Stellaria media, post-emergence, 15 g/ha; read-out: STEME Ob
How it was run: as §6

[24] = system: green foxtail (Setaria viridis L; SETVI); assay: as above; settings: 15 g/ha, Table 1
How it was run: as §6

[25] = system: lamb's-quarters (Chenopodium album L; CHEAL); assay: as above; settings: 15 g/ha
How it was run: as §6

## CCOC(=O)[C@@H](C)Oc1ccc(Oc2nc3ccc(Cl)cc3o2)cc1 [Fenoxaprop-p-ethyl]
Scirpus species (SCPSS)
  % Injury Ob: 0%
[1]; 35 g/ha alone
  % Injury Ob: 0%
[2]
  % Injury FIMMI Ob: 0%
[3]
  % Injury SCPMA Ob: 0%
[4]; alone 35 g/ha
  % Injury POLPY Ob: 0%

## O=C(Nc1ccc(F)cc1)c1cccc(Oc2cccc(C(F)(F)F)c2)n1 [Picolinafen]
[5]; 12.5 g/ha
  VERPE Ob: 0%
[5]; 15 g/ha alone
  VERPE Ob: 43%
[6]; 12.5 g/ha
  VIOTR Ob: 0%
[6]; 15 g/ha alone
  VIOTR Ob: 78%
[7]; 15 g/ha alone
  MATCH Ob: 10%
[8]; 12.5 g/ha
  SINAR Ob: 5%
[9]
  VERHE Ob: 5%
[10]; 12.5 g/ha
  KCHSC Ob: 5%
[11]; 15 g/ha alone
  SASKR Ob: 60%

## CCN(CC)CC.COc1c(Cl)ccc(-c2cc(N)c(Cl)c(C(=O)O)n2)c1Cl [Compound C TEA]
[1]; 35 g/ha alone
  % Injury Ob: 0%
[1]; 70 g/ha alone
  % Injury Ob: 0%
[12]; 35 g/ha alone
  % Injury Ob: 0%
  % Injury Obs: 0%
[12]; 70 g/ha alone
  % Injury Ob: 50%
  % Injury Obs: 50%
[13]; 35 g/ha alone
  % Injury Ob: 50%
[13]; 70 g/ha alone
  % Injury Ob: 95%
[14]; 35 g/ha alone
  % Injury Ob: 0%
[14]; 70 g/ha alone
  % Injury Ob: 0%
Cyperus species (CYPSS); CYPES, 35 g/ha alone
  % Injury Ob: 0%
Cyperus species (CYPSS); CYPES, 70 g/ha alone
  % Injury Ob: 40%
Cyperus species (CYPSS); CYPIR, 35 g/ha alone
  % Injury Ob: 20%
Cyperus species (CYPSS); CYPIR, 70 g/ha alone
  % Injury Ob: 60%
[15]; 35 g/ha alone
  % Injury Ob: 50%
[15]; 70 g/ha alone
  % Injury Ob: 80%
[16]; 35 g/ha alone
  % Injury Ob: 0%
[16]; 70 g/ha alone
  % Injury Ob: 25%

## O=C(O)CNCP(=O)(O)O [Glyphosate]
[6]; Viola tricolor, post-emergence, read-out: VIOTR Ob
  pest or weed control at 52.5 g/ha: 52%
[17]
  % Injury Ob: 20%
[18]; 70 g/ha alone
  % Injury Ob: 0%
[4]; POLPY, 70 g/ha alone
  % Injury Ob: 0%
[10]; 52.5 g/ha alone
  KCHSC Ob: 0%
[11]; 52.5 g/ha alone
  SASKR Ob: 0%

## O=c1c(Cl)c[nH]c(Cl)c1Cl [Pyriclor]
[18]; 140 g/ha alone
  % Injury Ob: 80%

## O=C(Nc1ccc(F)cc1F)c1cccnc1Oc1cccc(C(F)(F)F)c1 [Diflufenican, N-(2,4-difluorophenyl)-2-[3-(trifluoromethyl)phenoxy]-3-pyridinecarboxamide, reference compound]
[5]; Veronica persica, post-emergence, 12.5 g/ha alone, read-out: VERPE Ob
  pest or weed control at 12.5 g/ha: 7%
[5]; Veronica persica, post-emergence, 15 g/ha, read-out: VERPE Ob
  pest or weed control at 15 g/ha: 38%
[6]; Viola tricolor, post-emergence, 12.5 g/ha alone, read-out: VIOTR Ob
  pest or weed control at 12.5 g/ha: 35%
[6]; Viola tricolor, post-emergence, 15 g/ha, read-out: VIOTR Ob
  pest or weed control at 15 g/ha: 15%
[7]; Matricaria, post-emergence, 12.5 g/ha alone, read-out: MATCH Ob
  pest or weed control at 12.5 g/ha: 7%
[7]; Matricaria, post-emergence, 15 g/ha, read-out: MATCH Ob
  pest or weed control at 15 g/ha: 5%
[19]
  ALOMY Ob: 0%
[20]
  pest or weed control at 15 g/ha: 0%
[21]
  AVEFA Ob: 0%
[22]
  LOLMG Ob: 0%
[23]
  pest or weed control at 15 g/ha: 3%
[8]; 15 g/ha
  SINAR Ob: 0%
[24]
  SETVI Ob: 0%
[25]
  CHEAL Ob: 0%
[10]; 12.5 g/ha alone
  KCHSC Ob: 12%
